Reference: patent US20080160617A1, “AGENT FOR INDUCING EMBRYONIC STEM CELL TO ECTODERMAL CELL, METHOD FOR OBTAINING THE SAME, AND USE OF THE SAME” (KYOWA HAKKO KOGYO CO., LTD., priority 2001, published 2008)

Key:
[1] = tested on: embryonic stem cell; settings: cited from earlier work
[2] = tested on: ES cell EB5; test: Nerve differentiation of ES cell EB5 by solution recovered from PA6 cell with polyanion-containing Hanks' balanced salt solution (SDIA activity); assay type: cell-based, mouse; settings: 14 days
Method: ES cell EB5 (H. Niwa et al., Nature Genet., 24, 372 (2000); obtained from Dr. Hitoshi Niwa at the Molecular Control Medical Science Course, Medical School, Osaka University) was used as the embryonic stem cell, and an MC3T3-G2/PA6 cell (H. Kodama et al., J. Cell Physiol., 112) 89 (1982), hereinafter referred to as “PA6 cell”) as the stromal cell, and the ES cell EB5 was cultured in accordance with the method described in Reference Example 1 and used in the test.
Cells of PA6 cultured to almost confluent state on a dish of 10 cm in diameter were washed twice with 10 ml of PBS(−) (manufactured by Invitrogen) and once with 10 ml of Hanks' balanced salt solution (manufactured by Invitrogen), 3 ml of Hanks' balanced salt solution containing from 0.001% (w/v) to 0.1% (w/v) of heparin (manufactured by Nacalai Tesque) was added thereto, the mixture was allowed to stand at 37° C. for 30 minutes, and the solution was recovered. The solution obtained was added to the PA6 on the 10 cm, dish washed in the same manner described above, the mixture was allowed to stand at 37° C. for 30 minutes in the same manner, and then the solution was recovered. This process was carried out on PA6 on the other 10 cm dish, and effect of the recovered solution ES cell was examined. In this case, a solution recovered in the same manner by using a heparin-free Hanks' balanced salt solution was used as a negative control.
The solution obtained in the above was mixed at a ratio of 1:2 with a solution containing the ES cell EB5 which had been adjusted to a single cell state in a serum-free medium by the method described in Reference Example 1, and the mixture was inoculated into a gelatin-coated plastic culture dish at a cell density of 1,250 cells/cm^2 and incubated at 37° C. for 14 days in a CO2 incubator in an atmosphere of 5% carbon dioxide.
The cells after the culturing were fixed by 4% paraformaldehyde solution and subjected to immune staining in accordance with the method described in Using Antibodies, Cold Spring Harbor Laboratory Press (1999), using an anti-NCAM antibody (manufactured by Chemicon) as a general nerve marker, an anti-class III β-tubulin antibody (manufactured by Babco) as a nerve-specific marker and an anti-nestin antibody (manufactured by Pharmingen) as a nerve precursor cell-specific marker.
Compounds other than heparin with which the SDIA activity factor can be recovered were searched by the method for recovering an SDIA activity factor described in Example 1. Using a Hanks' balanced salt solution containing, instead of heparin, 0.001% (w/v) dextran sulfate (manufactured by Sigma), 0.001% (w/v) polyvinyl sulfate (manufactured by Sigma), 0.001% (w/v) polystyrene sulfonate (manufactured by Tosoh) 0.1% (w/v) carboxymethylcellulose (manufactured by, Wako Pure Chemical Industries) or 0.1% (w/v) hyaluronic acid (manufactured by Kibun Chemical Foods), respective solutions were recovered by the method described in Example 1 to examine their effects on the ES cell. In this case, a solution recovered in the same manner by using a heparin-free Hanks' balanced salt solution was used as a negative control.

[3] = tested on: ES cell EB5; test: Heparin treatment of PA6 feeder cell before paraformaldehyde fixation, nerve differentiation of ES cell EB5; assay type: cell-based, mouse; settings: PA6 cell cultured 2 days in medium containing 200 ng/ml heparin, then paraformaldehyde-fixed; 8 days coculture
Method: According to the method described in Reference Example 3, the ES cell EB5 was cultured for 8 days in the serum-free medium without BMP4 by using the paraformaldehyde-fixed PA6 cell as a feeder cell. Also, the case when the PA6 cell was cultured in a medium containing heparin (GIBCO BRL) (hereinafter referred to as “heparin treatment”) was compared with the case when culturing in a heparin-free medium. That is, dishes in which the PA6 cell proliferated to almost confluent on a 3 cm tissue culture dish was cultured for 2 days in a medium containing 200 ng/ml of heparin and dishes in which it was cultured for 2 days in a heparin-free medium were prepared, washed twice with PBS(−) and subjected to paraformaldehyde fixation, and the ES cell EB5 was inoculated onto the paraformaldehyde-fixed PA6 cell at a density of 200 cells/dish, the medium was exchanged with a fresh medium on the 4th, 6th and 7th days, and then the cells were cultured at 37° C. for 8 days in a stream of 5% carbon dioxide in a CO2 incubator.
Eight days after coculturing, the cells were fixed according to the method described in Reference Example 1, and the colonies formed as a result of the coculturing of the ES cell EB5 with PA6 cell were immunologically stained with the anti-NCAM antibody, anti-tubulin antibody and anti-nestin antibody.

[4] = solution recovered from PA6 cell with Hanks' solution containing 0.1% (w/v) polyanion instead of heparin
[5] = solution recovered from PA6 cell with Hanks' solution containing 0.001% (w/v) polyanion instead of heparin

## EGF: epidermal growth factor
[1]
  SDIA-like activity to induce differentiation of embryonic stem cell into ectoderm system cells: no SDIA-like activity

## HGF: hepatocyte growth factor
[1]
  SDIA-like activity to induce differentiation of embryonic stem cell into ectoderm system cells: no SDIA-like activity

## LIF: leukemia inhibitory factor
[1]
  SDIA-like activity to induce differentiation of embryonic stem cell into ectoderm system cells: no SDIA-like activity

## PDGF
[1]
  SDIA-like activity to induce differentiation of embryonic stem cell into ectoderm system cells: no SDIA-like activity

## bFGF: basic fibroblast growth factor
[1]
  SDIA-like activity to induce differentiation of embryonic stem cell into ectoderm system cells: no SDIA-like activity

## carboxymethylcellulose
[2]; [4]
  ratio of colonies expressing class III β-tubulin: 34.6%

## dextran sulfate
[2]; [5]
  ratio of colonies expressing class III β-tubulin: 67.2%

## heparin
[3]
  differentiation of ES cell into nerve cell on heparin-treated PA6 feeder cell: significant differentiation of ES cell into nerve cell was not observed
[2]; solution recovered from PA6 cell with Hanks' balanced salt solution containing 0.001% (w/v) heparin, mixed 1:2 with ES cell EB5
  ratio of colonies expressing class III β-tubulin: 68%

## hyaluronic acid
[2]; [4]
  ratio of colonies expressing class III β-tubulin: 19.8%

## polystyrene sulfonate
[2]; [5]
  ratio of colonies expressing class III β-tubulin: 48.7%

## polyvinyl sulfate
[2]; [5]
  ratio of colonies expressing class III β-tubulin: 54.8%
